The target of this experiment is PD-1/PD-L1 complex (Homo sapiens, UniProt Q9NZQ7). The experiment in a line: HTRF assay of PD-1/PD-L1 complex dissociation (CisBio).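 As to all read-outs here: human PD-L1 at 5 nM with human PD-1 at 50 nM, TR-FRET signal read after 2 h at room temperature, background removed via negative control and scaled to positive control.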 The note with it: for remaining activity at 5 µM / remaining activity at 50 µM / remaining activity at 0.005 µM: 2 h; for IC50: HTRF; for % of undissociated complex: at 50 μM, Table S1; for HTRF % of the undissociated complex: determined at 50 μM inhibitor (footnote a), Table 2; for % of the undissociated complex: 5 μM.
PD-1/PD-L1 complex, sequence (Q9NZQ7 19-238 limits assumed, one chain of several): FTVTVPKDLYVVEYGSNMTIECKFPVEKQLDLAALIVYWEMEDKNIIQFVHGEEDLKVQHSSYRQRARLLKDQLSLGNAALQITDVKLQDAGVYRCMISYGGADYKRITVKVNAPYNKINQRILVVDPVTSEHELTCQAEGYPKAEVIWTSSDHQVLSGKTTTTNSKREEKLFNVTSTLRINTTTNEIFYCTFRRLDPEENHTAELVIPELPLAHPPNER

The mark [1] stands for this setting: read-out: % of the undissociated complex in HTRF.
Where [2] appears, read: read-out: % of undissociated complex at 5 μM.
Setting [3] is: read-out: HTRF % of the undissociated complex at 5 μM.
Where [4] appears, read: read-out: % of undissociated complex at 5 nM.
Where [5] appears, read: read-out: HTRF % of the undissociated complex at 5 nM.

Where two headings read alike, the source gives them in different places.

Turning to `Cc1c(-c2cccc(CO)c2)cccc1-c1ccc2c(c1)OCCO2` [4b, (3′-(Benzo-1,4-dioxan-6-yl)-2′-methyl-[1,1′-biphenyl]-3-yl)methanol], the remaining activity at 5 µM worked out at 88% under setting [1], 88% under setting [2] and 88% under setting [3].

`Cc1c(-c2ccc3c(c2)OCCO3)cccc1-c1ccccc1CO` [4c, (3′-(Benzo-1,4-dioxan-6-yl)-2′-methyl-[1,1′-biphenyl]-2-yl)methanol]: the remaining activity at 5 µM reads like this: under setting [1], 98%; under setting [2], 98%; under setting [3], 98%.

As to `Nc1c(-c2ccc(CO)cc2)cccc1-c1ccc2c(c1)OCCO2` [4d, (2′-Amino-3′-(benzo-1,4-dioxan-6-yl)-[1,1′-biphenyl]-4-yl)methanol], the remaining activity at 5 µM under setting [1] came out at 73%, the remaining activity at 5 µM under setting [2] amounted to 73% and the remaining activity at 5 µM under setting [3] was found to be 73%.

In general, IC50 refers to the concentration that gives 50% inhibition. A low value points to greater potency in that assay. Compound `OCc1ccc(-c2cccc(-c3ccc4c(c3)OCCO4)c2Cl)cc1` [4e, (3′-(Benzo-1,4-dioxan-6-yl)-2′-chloro-[1,1′-biphenyl]-4-yl)methanol] gave an IC50 of roughly 500 nM. Under setting [1], the remaining activity at 5 µM is 1%. Moreover, the remaining activity at 5 µM under setting [2] came to 1%. Also, under setting [3], the remaining activity at 5 µM is 1%. Moreover, inhibition (Table 1) was half-maximal at 510 ± 10 nM (IC50).

With `OCc1ccc(-c2cccc(-c3ccc4c(c3)OCCO4)c2Br)cc1` [4f, (3′-(Benzo-1,4-dioxan-6-yl)-2′-bromo-[1,1′-biphenyl]-4-yl)methanol], the remaining activity at 5 µM came to 15% under setting [1], 15% under setting [2] and 15% under setting [3]. The compound also gave an IC50 (Table 1) of 950 ± 20 nM.

On to `OCc1ccc(-c2cccc(-c3ccc4c(c3)OCCO4)c2I)cc1` [4g, (3′-(Benzo-1,4-dioxan-6-yl)-2′-iodo-[1,1′-biphenyl]-4-yl)methanol], for which the remaining activity at 5 µM was found to be 56% under setting [1], 56% under setting [2] and 56% under setting [3].

Regarding `N#Cc1c(-c2ccc(CO)cc2)cccc1-c1ccc2c(c1)OCCO2` [4h], the remaining activity at 5 µM under setting [1] stood at 21%, the remaining activity at 5 µM under setting [2] amounted to 21% and the remaining activity at 5 µM under setting [3] came to 21%. For the same compound, the IC50 (Table 1) came out at 1170 ± 120 nM.

Regarding `Cc1c(-c2ccc(COc3cccc(C(=O)O)c3)cc2)cccc1-c1ccc2c(c1)OCCO2` [5b, 3-((3′-(Benzo-1,4-dioxan-6-yl)-2′-methyl-[1,1′-biphenyl]-4-yl)methoxy)benzoic Acid], the “% of undissociated complex” value is listed as 71% and the “HTRF % of the undissociated complex” value is 71^[a] %. Also, the remaining activity at 50 µM under setting [1] was found to be 71%.

With `Cc1c(-c2ccc(COc3ccc(-c4cccnc4)c(C=O)c3)cc2)cccc1-c1ccc2c(c1)OCCO2` [5d, 5-((3′-(Benzo-1,4-dioxan-6-yl)-2′-methyl-[1,1′-biphenyl]-4-yl)methoxy)-2-(pyridin-3-yl)benzaldehyde], the “% of undissociated complex” value is recorded as 65% and the “HTRF % of the undissociated complex” value is 65^[a] %. Moreover, under setting [1], the remaining activity at 50 µM was 65%.

Consider `Cc1c(-c2ccc(COc3cc(C(=O)O)on3)cc2)cccc1-c1ccc2c(c1)OCCO2` [5f, 3-((3′-(Benzo-1,4-dioxan-6-yl)-2′-methyl-[1,1′-biphenyl]-4-yl)methoxy)isoxazole-5-carboxylic Acid], for which the remaining activity at 5 µM is, setting by setting: under setting [1], 90%; under setting [2], 90%; under setting [3], 90%.

`Cc1c(-c2ccc(Cn3cc(C(=O)O)nn3)cc2)cccc1-c1ccc2c(c1)OCCO2` [5h, 1-((3′-(Benzo-1,4-dioxan-6-yl)-2′-methyl-[1,1′-biphenyl]-4-yl)methyl)-1H-1,2,3-triazole-4-carboxylic Acid]: the remaining activity at 5 µM by setting is: under setting [1], 100%; under setting [2], 100%; under setting [3], 100%.

For the compound `Cc1c(-c2cccc(COc3cccc(C(=O)O)c3)c2)cccc1-c1ccc2c(c1)OCCO2` [5j, 3-((3′-(Benzo-1,4-dioxan-6-yl)-2′-methyl-[1,1′-biphenyl]-3-yl)methoxy)benzoic Acid], the remaining activity at 5 µM amounted to 90% under setting [1], 90% under setting [2] and 90% under setting [3].

Turning to `Cc1c(-c2cccc(COc3ccc(-c4cccnc4)c(C=O)c3)c2)cccc1-c1ccc2c(c1)OCCO2` [5l, 5-((3′-(Benzo-1,4-dioxan-6-yl)-2′-methyl-[1,1′-biphenyl]-3-yl)methoxy)-2-(yridine-3-yl)benzaldehyde], the “% of undissociated complex” value turned out to be 95% and the “HTRF % of the undissociated complex” value is 95^[a] %. Moreover, the remaining activity at 50 µM under setting [1] came out at 95%.

Regarding `Cc1c(-c2cccc(COc3cc(C(=O)O)on3)c2)cccc1-c1ccc2c(c1)OCCO2` [5n, 3-((3′-(Benzo-1,4-dioxan-6-yl)-2′-methyl-[1,1′-biphenyl]-3-yl)methoxy)isoxazole-5-carboxylic Acid], the remaining activity at 5 µM by setting is: under setting [1], 77%; under setting [2], 77%; under setting [3], 77%.

Regarding `Cc1c(-c2ccc3c(c2)OCCO3)cccc1-c1ccccc1COc1cccc(C(=O)O)c1` [5p, 3-((3′-(Benzo-1,4-dioxan-6-yl)-2′-methyl-[1,1′-biphenyl]-2-yl)methoxy)benzoic Acid], the “% of undissociated complex” value turned out to be 87% and the “HTRF % of the undissociated complex” value was 87^[a] %. Also, under setting [1], the remaining activity at 50 µM came out at 87%.

Consider `Cc1c(-c2ccc3c(c2)OCCO3)cccc1-c1ccccc1COc1cc(C(=O)O)on1` [5r, 3-((3′-(Benzo-1,4-dioxan-6-yl)-2′-methyl-[1,1′-biphenyl]-2-yl)methoxy)isoxazole-5-carboxylic Acid], for which the remaining activity at 5 µM came to 100% under setting [1], 100% under setting [2] and 100% under setting [3].

On to `Cc1c(-c2ccc(CN3CCOCC3)cc2)cccc1-c1ccc2c(c1)OCCO2` [6a, 4-((3′-(Benzo-1,4-dioxan-6-yl)-2′-methyl-[1,1′-biphenyl]-4-yl)methyl)morpholine], for which the remaining activity at 5 µM under setting [1] worked out at 55%, the remaining activity at 5 µM under setting [2] worked out at 55% and the remaining activity at 5 µM under setting [3] worked out at 55%.

For the compound `Cc1c(-c2ccc(CN3CCNCC3)cc2)cccc1-c1ccc2c(c1)OCCO2` [6b, 4-((3′-(Benzo-1,4-dioxan-6-yl)-2′-methyl-[1,1′-biphenyl]-4-yl)methyl)piperazine], the “% of the undissociated complex” value is on record as 5%. In addition, the remaining activity at 5 µM under setting [1] worked out at 5%. Besides, the remaining activity at 5 µM under setting [2] is 5%. Moreover, the remaining activity at 5 µM under setting [3] amounted to 5%.

`Cc1c(-c2cccc(CN3CCNCC3)c2)cccc1-c1ccc2c(c1)OCCO2` [6c, 1-((3′-(Benzo-1,4-dioxan-6-yl)-2′-methyl-[1,1′-biphenyl]-3-yl)methyl)piperazine]: the “% of the undissociated complex” value is “about 56%”. The remaining activity at 5 µM under setting [1] was found to be 56%. The remaining activity at 5 µM under setting [2] is 56%. Further, the remaining activity at 5 µM under setting [3] amounted to 56%.

As for `COc1cc(-c2cccc(-c3ccc4c(c3)OCCO4)c2C)ccc1CN1CCNCC1` [6d, 1-((3′-(Benzo-1,4-dioxan-6-yl)-3-methoxy-2′-methyl-[1,1′-biphenyl]-4-yl)methyl)piperazine], the remaining activity at 0.005 µM amounted to 63% under setting [4] and 63% under setting [5].

In the case of `Cc1c(-c2ccc(CN3CCNCC3)c(OCc3cccc(C#N)c3)c2)cccc1-c1ccc2c(c1)OCCO2` [6e, 3-(((3′-(Benzo-1,4-dioxan-6-yl)-2′-methyl-4-(piperazin-1-ylmethyl)-[1,1′-biphenyl]-3-yl)oxy)methyl)benzonitrile], the remaining activity at 0.005 µM reads like this: under setting [4], 88%; under setting [5], 88%.

Take `CCOc1cc(-c2cccc(-c3ccc4c(c3)OCCO4)c2Cl)ccc1CNCCNC(C)=O` [7b, N-(2-(((3′-(Benzo-1,4-dioxan-6-yl)-2′-chloro-3-ethoxy-[1,1′-biphenyl]-4-yl)methyl)amino)ethyl)acetamide]: the remaining activity at 0.005 µM reads like this: under setting [4], 5%; under setting [5], 5%.

With `CC(=O)NCCNCc1ccc(-c2cccc(-c3ccc4c(c3)OCCO4)c2Cl)cc1OC(C)C` [7c, N-(2-(((3′-(Benzo-1,4-dioxan-6-yl)-2′-chloro-3-isopropoxy-[1,1′-biphenyl]-4-yl)methyl)amino)ethyl)acetamide], the remaining activity at 0.005 µM reads like this: under setting [4], 5%; under setting [5], 5%.

Take `CC(=O)NCCNCc1ccc(-c2cccc(-c3ccc4c(c3)OCCO4)c2Cl)cc1OCCC(C)C` [7d, N-(2-(((3′-(Benzo-1,4-dioxan-6-yl)-2′-chloro-3-isopentyloxy-[1,1′-biphenyl]-4-yl)methyl)amino)ethyl)acetamide]: the remaining activity at 0.005 µM under setting [4] worked out at 65% and the remaining activity at 0.005 µM under setting [5] worked out at 65%.

Take `CC(=O)NCCNCc1ccc(-c2cccc(-c3ccc4c(c3)OCCO4)c2Cl)cc1OCC1CCC1` [7f, N-(2-(((3′-(Benzo-1,4-dioxan-6-yl)-2′-chloro-3-(cyclobutylmethoxy)-[1,1′-biphenyl]-4-yl)methyl)amino)ethyl)acetamide]: the remaining activity at 0.005 µM by setting is: under setting [4], 53%; under setting [5], 53%.

Turning to `CC(=O)NCCNCc1ccc(-c2cccc(-c3ccc4c(c3)OCCO4)c2Cl)cc1OCC1CCCC1` [7g, N-(2-(((3′-(Benzo-1,4-dioxan-6-yl)-2′-chloro-3-(cyclopentylmethoxy)-[1,1′-biphenyl]-4-yl)methyl)amino)ethyl)acetamide], the remaining activity at 0.005 µM under setting [4] came out at 76% and the remaining activity at 0.005 µM under setting [5] amounted to 76%.

Consider `CC(=O)NCCNCc1ccc(-c2cccc(-c3ccc4c(c3)OCCO4)c2Cl)cc1OCc1cccc(-c2cccc(C#N)c2)c1` [7h, N-(2-(((3′-(Benzo-1,4-dioxan-6-yl)-2′-chloro-3-((3′-cyano-[1,1′-biphenyl]-3-yl)methoxy)-[1,1′-biphenyl]-4-yl)methyl)amino)ethyl)acetamide], for which the remaining activity at 0.005 µM turned out to be 100% under setting [4] and 100% under setting [5].
